What was measured:
[1] = target: T1, thrombin from human plasma (Homo sapiens, UniProt P00734); assay: Km-based chromogenic thrombin inhibition assay (S-2238); type: biochemical; parameters: from tissue; host or cells: human plasma; settings: 8 μM S-2238, 10 mU thrombin, pH 7.2, 35° C., 405 nm
Description: Specifically, a Km-based chromogenic assay was first employed. […] Measurements at 405 nm are designed to detect the thrombin-induced liberation of p-nitroaniline from the S-2238 substrate. As such, an observed increase in absorbance at 405 nm directly correlates with an increase in hydrolysis of the substrate by thrombin.

[2] = target: T1, thrombin from human plasma; assay: Vmax-based thrombin inhibition assay (200 μM S-2238); type: biochemical; parameters: from tissue; host or cells: human plasma; settings: 200 μM S-2238, 40 mU thrombin, pH 7.2, 25° C.
[3] = target: T1, thrombin from human plasma; assay: Km-based 96-well formatted fluorogenic thrombin inhibition assay
[4] = target: T1, thrombin from human plasma; assay: Km-based fluorogenic assay for inhibition of thrombin (Example 7); type: biochemical; parameters: from tissue; host or cells: human plasma; settings: FIGS. 9 and 10
Description: Thrombin from human plasma was obtained from Enzyme System Products, Dublin, Calif., in glycerol:water 1:1, 11.4 mg/ml, 3800 U/mg, MW 36,700, and stored undiluted at -20° C. It was freshly diluted the day of use.
To dilute for the assay, 0.67 μl (25 Units) of thrombin was pipetted into 5 ml of 0.1 mg/ml BSA (from Pierce, Catalog No. 23209, BSA fraction V, a 2 mg/ml stock in saline with sodium azide), in cold PBS (GIBCO, Catalog No. 14190-136, without calcium chloride and magnesium chloride, pH 7.2) and briefly vortexed, yielding a stock of 5 mU thrombin/μl.
The substrate was N-tBOC-β-Benzyl-Asp-Pro-Arg-7-Amido4-Methylcoumarin HCl and was obtained from Sigma, Catalog No. B4028, Lot 122H0070, F.W. 770.3. Five mg was dissolved in […] DMSO for a 4 mM stock. The stock was stored in 200 μl aliquots at -20° C. in the dark.
An alternative substrate was N-tBOC-Val-Pro-Arg-7-Amido4-Methylcoumarin HCl and was obtained from Sigma, Catalog No. B-9385, Lot 53H0805, F.W. of free base 627.7. Five mg was dissolved in 1.863 ml DMSO for a 4 mM stock. The stock was stored in 200 μl aliquots at -20° C. in the dark.
The fluorescent standard was 7-Amido4-Methylcoumarin and was obtained from Aldrich, Catalog No. 25,737-0, MW 175.19. […]
Initial readings were taken to ensure exclusion of rogue wells with abnormally high backgrounds (λ excitation at 360 nm, bandwidth […], λ emission, 460 nm, bandwidth 40 nm). Then, 25 μl of a 10×stock of the putative inhibitor were added per well, mixed for 5 seconds and read kinetically for 10 minutes at ambient temperature to assess background interference and/or any increase in hydrolysis of substrate due to inhibitor.
The thrombin assay was then initiated by adding 25 μl of thrombin/well with a multichannel pipettor and mixed for 5 seconds. The appearence of the fluorescent product (free 7-amido-4-methylcoumarin released from the peptide by thrombin) was followed simultaneously in 48 wells (one reading per minute for 30 minutes, λ excitation at 360 nm, bandwidth 40 nm, λ emission, 460 nm, bandwidth 40 nm). […]

[5] = tested on: anti-KLH-argatroban antibody; assay: Sandwich ELISA using polyclonal anti-KLH-argatroban antibodies; type: binding, rabbit; settings: rabbit erythrocytes treated with argatroban-C6 free acid
Description: The reaction was quenched by adding hydroxylamine, pH 7.8 to a final concentration of 50 mM and incubating at room temperature for 10 minutes.
Rabbit anti-HSA monoclonal antibody (Boehringer/Mannheim, catalog no. 605001) diluted 1:5000 in PBS, pH 7.4 or mouse anti-hGPA monoclonal antibody (BioAtlan-tic/CRTS, mAb 5F4, diluted to 10 μg/ml in 0.1 M sodium acetate, pH 4.5 or mAb 3C10 diluted 1:500 or mAb 3E4 diluted 1:1000 in PBS, pH 7.4 - each antibody recognizes a different epitope of hGPA), were used to capture respective proteins by aliquotting 100 μl/well into a NUNC Maxisorp F96 plate (catalog no. 439454). The plates were incubated overnight at 4° C., were then blocked by the addition of 200 μl/well of 1% BSA/PBS and incubated at room temperature for 1 hour. The plates were then washed 5 times by submersion in PBS, pH 7.4.
Samples were incubated on the plates for 2 hours at room temperature and then were washed as above.
The plates were then incubated at room temperature for 30 minutes and washed as above.
Biotinylated goat anti-rabbit IgG (Vector, catalog no. BA1000) was diluted 1:1000 in 1% BSA/PBS, pH 7.4 and 100 μl/well added to all wells. The plates were incubated at room temperature for 30 minutes and washed as above.
Next, 100 μl/well of ABC-HRP (Vector, catalog no. PK4000) was added, each component diluted 1:500 in PBS, pH 7.4, with 0.1% TWEEN 20 and incubated 30 minutes at room temperature prior to use. The plates were then washed 10 times by submersion in PBS, pH 7.4.

Row | IC50 [1] [nM] | IC50 [2] [nM] | IC50 [3] [nM] | thrombin inhibition [4] | Structure (SMILES) | plate ELISA signal [5]
1 | 150 | 5000 to 8000 | ~80 |  | CC1CNc2c(cccc2S(=O)(=O)NC(CCCNC(=N)N)C(=O)N2CCC(C)CC2C(=O)NCCCCCCCCCCCC(=O)O)C1 (stereo not drawn) [compound YL-015-10] | 
2 |  |  | ~50 | not inhibitory | CC1CNc2c(cccc2S(=O)(=O)NC(CCCN=C(N)N)C(=O)N2CCC(C)CC2C(=O)NCCCCCC(=O)O)C1 (stereo not drawn) [compound YL-015-15] | did not give a signal above background
